Results reported in the supplement of paper PMC10307832.

Experiments:
Test in all cases: relative viability (nuclei count vs DMSO), 5 days (fraction); higher = more cells survive
Idelalisib + Navitoclax = compound: CC[C@H](Nc1ncnc2[nH]cnc12)c1nc2cccc(F)c2c(=O)n1-c1ccccc1 [Idelalisib] + CC1(C)CCC(c2ccc(Cl)cc2)=C(CN2CCN(c3ccc(C(=O)NS(=O)(=O)c4ccc(N[C@H](CCN5CCOCC5)CSc5ccccc5)c(S(=O)(=O)C(F)(F)F)c4)cc3)CC2)C1 [Navitoclax] (partner 0.5 µM)
Method in brief: (§1)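 Lung cancer cell lines were seeded in 1536-well plates and dosed by pin tool the next day, with either a single drug or a fixed anchor-drug dose combined with five library-drug doses (not always all listed) spaced in √10 steps. Five days later, one step fixed the cells and stained their nuclei (final 0.05% Triton X-100, 1% formaldehyde, 1 ug/ml Hoechst), and nuclei were counted on 4× images. Relative viability is the nuclei count in treated wells divided by the count in vehicle wells, and each value is the median of duplicate plates.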

Pemetrexed + Trametinib = compound: Nc1nc2[nH]cc(CCc3ccc(C(=O)N[C@@H](CCC(=O)O)C(=O)O)cc3)c2c(=O)[nH]1 [Pemetrexed] + CC(=O)Nc1cccc(-n2c(=O)n(C3CC3)c(=O)c3c(Nc4ccc(I)cc4F)n(C)c(=O)c(C)c32)c1 [Trametinib] (partner 0.02 µM)
Method in brief: as §1

Pemetrexed + Phenformin = compound: Nc1nc2[nH]cc(CCc3ccc(C(=O)N[C@@H](CCC(=O)O)C(=O)O)cc3)c2c(=O)[nH]1 [Pemetrexed] + N=C(N)NC(=N)NCCc1ccccc1 [Phenformin] (partner 250 µM)
Method in brief: as §1

Pemetrexed + Vorinostat = compound: Nc1nc2[nH]cc(CCc3ccc(C(=O)N[C@@H](CCC(=O)O)C(=O)O)cc3)c2c(=O)[nH]1 [Pemetrexed] + O=C(CCCCCCC(=O)Nc1ccccc1)NO [Vorinostat] (partner 1 µM)
Method in brief: as §1

Cell Line | relative viability (Idelalisib + Navitoclax; first compound 0.04 µM) | relative viability (Idelalisib + Navitoclax; first compound 0.1265 µM) | relative viability (Idelalisib + Navitoclax; first compound 0.4 µM) | relative viability (Idelalisib + Navitoclax; first compound 1.265 µM) | relative viability (Idelalisib + Navitoclax; first compound 4 µM) | relative viability (Pemetrexed + Trametinib; first compound 0.002 µM) | relative viability (Pemetrexed + Trametinib; first compound 0.006325 µM) | relative viability (Pemetrexed + Trametinib; first compound 0.02 µM) | relative viability (Pemetrexed + Trametinib; first compound 0.06325 µM) | relative viability (Pemetrexed + Trametinib; first compound 0.2 µM) | relative viability (Pemetrexed + Phenformin; first compound 0.006325 µM) | relative viability (Pemetrexed + Phenformin; first compound 0.02 µM) | relative viability (Pemetrexed + Phenformin; first compound 0.06325 µM) | relative viability (Pemetrexed + Phenformin; first compound 0.2 µM) | relative viability (Pemetrexed + Vorinostat; first compound 0.002 µM) | relative viability (Pemetrexed + Vorinostat; first compound 0.006325 µM) | relative viability (Pemetrexed + Vorinostat; first compound 0.02 µM) | relative viability (Pemetrexed + Vorinostat; first compound 0.06325 µM) | relative viability (Pemetrexed + Vorinostat; first compound 0.2 µM) | relative viability (Pemetrexed + Phenformin; first compound 0.002 µM)
NCI-H727 | 0.454 | 0.57 | 0.416 | 0.548 | 0.354 | 0.346 | 0.395 | 0.464 | 0.357 | 0.404 | 0.484 | 0.474 | 0.633 | 0.525 | 1.18 | 1.12 | 1.26 | 1.16 | 1.06 | –
NCI-H1975 | 1.1 | 1.08 | 1.12 | 1.06 | 0.692 | 0.277 | 0.408 | 0.323 | 0.329 | 0.237 | 0.39 | 0.413 | 0.32 | 0.237 | 0.666 | 0.721 | 0.699 | 0.588 | 0.308 | 0.331
NCI-H460 | 1.12 | 1.07 | 1.09 | 1.24 | 1.14 | – | 0.0664 | 0.241 | 0.0967 | 0.0451 | 0.452 | 0.56 | 0.247 | 0.0552 | – | 0.683 | 0.784 | 0.57 | 0.0651 | 0.432
EPLC-272H | 1.08 | 1.14 | 1 | 1 | 0.959 | 0.33 | 0.27 | 0.385 | 0.305 | 0.227 | 0.315 | 0.333 | 0.292 | 0.267 | 0.519 | 0.398 | 0.544 | 0.308 | 0.288 | 0.242
SK-LU-1 | 0.871 | 1.05 | 0.988 | 0.683 | 0.799 | 0.412 | 0.478 | 0.61 | 0.402 | 0.424 | 0.497 | 0.626 | 0.547 | 0.534 | 0.684 | 0.782 | 0.887 | 0.763 | 0.795 | 0.497
NCI-H322M | 1.2 | 1.2 | 1.09 | 1.25 | 1.04 | 0.511 | 0.478 | 0.503 | 0.456 | 0.551 | 0.747 | 0.799 | 0.741 | 0.613 | 0.84 | 0.957 | 0.888 | 0.893 | 0.58 | 0.861
NCI-H2405 | 1.01 | 0.759 | 0.716 | 0.766 | 0.622 | 0.735 | 0.589 | 0.66 | 0.582 | 0.653 | 0.362 | 0.423 | 0.432 | 0.392 | 0.929 | 1.2 | 1.07 | 1.02 | 0.96 | 0.37
NCI-H1666 | 0.892 | 0.928 | 0.835 | 0.804 | 0.69 | 0.845 | 0.826 | 0.926 | 0.873 | 0.784 | 0.55 | 0.625 | 0.551 | 0.537 | 1.01 | 0.95 | 1.03 | 0.924 | 0.863 | 0.577
H3255 | 0.617 | 0.513 | 0.506 | 0.415 | 0.38 | 0.517 | 0.581 | 0.673 | 0.55 | 0.515 | 0.355 | 0.414 | 0.418 | 0.414 | 0.66 | 0.767 | 0.753 | 0.817 | 0.596 | 0.349
NCI-H2347 | 0.89 | 0.667 | 0.737 | 0.767 | 0.618 | 0.282 | 0.376 | 0.246 | 0.287 | 0.28 | 0.369 | 0.484 | 0.412 | 0.387 | 0.49 | 0.487 | 0.609 | 0.468 | 0.436 | 0.203
LK-2 | 0.99 | 0.835 | – | 1.02 | 0.729 | 0.649 | 0.568 | 0.697 | 0.737 | 0.659 | 0.475 | 0.883 | 0.376 | 0.267 | 0.312 | 0.313 | 0.254 | 0.297 | 0.338 | 0.51
HCC-15 | 0.692 | 0.712 | 0.67 | 0.699 | 0.591 | 0.371 | 0.344 | 0.392 | 0.336 | 0.218 | 0.455 | 0.531 | 0.372 | 0.21 | 0.821 | 0.76 | 0.878 | 0.69 | 0.345 | 0.439
SW 1573 | 0.859 | 0.837 | 0.994 | 0.926 | 0.791 | 0.511 | 0.521 | 0.572 | 0.474 | 0.577 | 0.348 | 0.447 | 0.353 | 0.388 | 0.697 | 0.541 | 1.04 | 0.747 | 0.653 | 0.401
NCI-H838 | 1 | 1.14 | 1.07 | 1.05 | 0.977 | 0.555 | 0.53 | 0.664 | 0.393 | 0.169 | 0.546 | 0.792 | 0.379 | 0.155 | 0.72 | 0.727 | 0.781 | 0.661 | 0.308 | 0.616
RERF-LC-KJ | 0.922 | 0.951 | 0.884 | 0.792 | 0.638 | 0.842 | 0.856 | 0.909 | 0.736 | 0.639 | 0.439 | 0.43 | 0.411 | 0.349 | 0.621 | 0.581 | 0.762 | 0.597 | 0.5 | 0.435
ChaGo-K-1 | 1.03 | 1.01 | 1.12 | 1.09 | 1.14 | 0.902 | 0.848 | 0.871 | 0.662 | 0.31 | 0.495 | 0.507 | 0.332 | 0.217 | 0.721 | 0.735 | 0.751 | 0.293 | 0.233 | 0.497
